This note sets out measurements from ChEMBL document CHEMBL1781976, “Synthesis of 7,9-diazabicyclo[4.2.2]decanes as conformationally restricted κ receptor agonists: fine tuning of the dihedral angle of the ethylenediamine pharmacophore” (Eur J Med Chem, 2011).

Test [1] addresses Kappa-type opioid receptor (Homo sapiens, UniProt P41145). Kind of test: Displacement of [3H]U69593 from kappa opioid receptor. For orientation: In a radioligand displacement assay an active substance lowers the binding of a labelled ligand.
The target in the next test is Mu-type opioid receptor (Cavia porcellus, UniProt P97266). Kind of test: Displacement of [3H]DAMGO from mu opioid receptor in guinea pig brain membranes. Type of test: cell membranes, Membrane.
Mu-type opioid receptor, sequence (P97266 whole entry): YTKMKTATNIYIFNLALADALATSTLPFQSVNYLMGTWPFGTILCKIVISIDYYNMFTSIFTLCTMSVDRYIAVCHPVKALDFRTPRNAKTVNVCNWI
Test [2] has as its target Kappa-type opioid receptor (Cavia porcellus, UniProt P41144). As to the kind of experiment: Displacement of [3H]U69593 from kappa opioid receptor in guinea pig brain membranes after 150 mins by scintillation counting. Type of test: cell membranes, Membrane.
The target in test [3] is Delta-type opioid receptor (Rattus norvegicus, UniProt P33533). As to the kind of experiment: Displacement of [3H]DPDPE from delta opioid receptor in rat brain membranes. Type of test: cell membranes.
Delta-type opioid receptor, sequence (P33533 whole entry): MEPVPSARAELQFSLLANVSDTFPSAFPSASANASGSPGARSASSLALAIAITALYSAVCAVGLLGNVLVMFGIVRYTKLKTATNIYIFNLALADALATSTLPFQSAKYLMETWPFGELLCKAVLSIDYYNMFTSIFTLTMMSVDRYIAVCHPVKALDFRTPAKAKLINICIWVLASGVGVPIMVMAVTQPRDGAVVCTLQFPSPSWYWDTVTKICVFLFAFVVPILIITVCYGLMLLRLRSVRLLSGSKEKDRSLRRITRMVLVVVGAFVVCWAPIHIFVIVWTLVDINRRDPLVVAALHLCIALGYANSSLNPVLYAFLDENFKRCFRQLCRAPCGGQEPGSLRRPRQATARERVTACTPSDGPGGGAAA
For test [4], the target named is Sigma non-opioid intracellular receptor 1 (Cavia porcellus, UniProt Q60492). Kind of test: Displacement of [3H]-(+)-pentazocine from sigma 1 receptor in guinea pig brain membranes. It is filed as cell membranes, Membrane.
Sigma non-opioid intracellular receptor 1, sequence (Q60492 whole entry): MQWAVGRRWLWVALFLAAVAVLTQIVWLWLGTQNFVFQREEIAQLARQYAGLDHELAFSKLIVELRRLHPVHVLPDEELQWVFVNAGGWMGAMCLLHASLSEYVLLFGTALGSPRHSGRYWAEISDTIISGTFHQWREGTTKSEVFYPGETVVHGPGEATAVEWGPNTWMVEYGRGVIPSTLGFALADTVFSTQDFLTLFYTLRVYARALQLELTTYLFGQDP
Test [5] in a line: Displacement of [3H]di-o-toylguanidine from sigma 2 receptor in rat liver homogenates. It is filed as tissue-based.

Kappa-type opioid receptor (Cavia porcellus, UniProt P41144), sequence (P41144 whole entry): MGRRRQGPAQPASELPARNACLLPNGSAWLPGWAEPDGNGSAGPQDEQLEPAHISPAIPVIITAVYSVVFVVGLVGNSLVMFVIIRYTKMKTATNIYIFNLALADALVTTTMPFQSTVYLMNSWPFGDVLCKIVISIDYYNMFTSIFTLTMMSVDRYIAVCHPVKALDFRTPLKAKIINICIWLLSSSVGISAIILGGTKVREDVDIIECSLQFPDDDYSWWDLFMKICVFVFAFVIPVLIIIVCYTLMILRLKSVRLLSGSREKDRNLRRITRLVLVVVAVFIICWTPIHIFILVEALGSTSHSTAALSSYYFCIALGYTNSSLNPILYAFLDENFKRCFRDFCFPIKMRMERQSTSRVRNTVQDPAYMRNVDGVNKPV
Kappa-type opioid receptor (Homo sapiens, UniProt P41145), sequence (P41145 whole entry): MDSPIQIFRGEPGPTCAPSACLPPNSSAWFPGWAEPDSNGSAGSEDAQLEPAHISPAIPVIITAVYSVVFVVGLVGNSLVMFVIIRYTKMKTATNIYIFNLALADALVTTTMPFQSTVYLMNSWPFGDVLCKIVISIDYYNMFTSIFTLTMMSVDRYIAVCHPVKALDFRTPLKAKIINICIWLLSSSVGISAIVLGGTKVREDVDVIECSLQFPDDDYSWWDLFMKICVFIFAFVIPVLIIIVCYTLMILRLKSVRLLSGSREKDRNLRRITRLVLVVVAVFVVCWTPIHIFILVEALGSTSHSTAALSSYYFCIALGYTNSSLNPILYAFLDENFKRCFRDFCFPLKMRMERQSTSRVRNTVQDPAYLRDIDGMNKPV

As to `COC(=O)N1CCN(C(=O)Cc2ccc(Cl)c(Cl)c2)[C@@H]([C@@H](C)N2CCCC2)C1`, in test [1], the Ki turned out to be 0.00031 µM.

With `COC(=O)N1CCN(C(=O)Cc2ccc(Cl)c(Cl)c2)[C@H](CN2CCCC2)C1`, the affinity in test [1] corresponds to a Ki of 0.00045 µM.

On to `COC(=O)N1CC2C(N3CCCC3)CCCC1CN2C(=O)Cc1ccc(Cl)c(Cl)c1` (racemic), for which the Ki is over 1 µM on Mu-type opioid receptor, 0.333 µM in test [2], over 1 µM in test [3] and 0.452 µM in test [4].

As for `COc1ccc(CN2CC3CCCC(N4CCCC4)C2CN3Cc2ccccc2)cc1` (racemic), the Ki in test [5] was over 1 µM; in test [4] it was 0.531 µM.

For `O=C(Cc1ccc(Cl)c(Cl)c1)N1CC2CCCC(N3CCCC3)C1CN2Cc1ccccc1` (racemic; 14), the Ki in test [5] was over 1 µM; at Mu-type opioid receptor it was over 1 µM; in test [2], 0.378 µM; in test [3], 0.15 µM; in test [4], 0.221 µM.

Regarding `O=C(Cc1ccc(Cl)c(Cl)c1)N1CC2CCCC(N3CCCC3)C1CN2Cc1ccccc1` (racemic; 26), the Ki on Mu-type opioid receptor is over 1 µM; in test [2] it was 0.314 µM; in test [3] it was 0.324 µM; in test [4], 0.175 µM.

Turning to `O=C(Cc1ccc(Cl)c(Cl)c1)N1CCN2CC[C@@H](N3CCCC3)[C@H]1C2` (relative stereo), in test [2], the Ki is over 1 µM.

For `O=C(Cc1ccc(Cl)c(Cl)c1)N1CCN2CC[C@H](N3CCCC3)[C@H]1C2` (relative stereo), affinity in test [2] was put at a Ki of 0.073 µM.

On to `COC(=O)N1CC2C(N3CCCC3)CCCC1CN2C(=O)Cc1ccc(Cl)c(Cl)c1` (stereo in doubt; 9), for which the Ki in test [5] is over 1 µM; on Mu-type opioid receptor, over 1 µM; in test [2], 0.065 µM; in test [3], over 1 µM; in test [4], over 1 µM.

With `COc1ccc(CN2CC3CCCC(N4CCCC4)C2CN3Cc2ccccc2)cc1` (stereo in doubt; 25), the Ki in test [5] stood at 0.203 µM; in test [4], 0.238 µM.

As to `CC(C)=CCN1CC[C@]2(C)c3cc(O)ccc3C[C@H]1[C@H]2C` [(+)-PENTAZOCINE], in test [5], the Ki is 0.058 µM.

What is called Ki is a dissociation constant, usually derived from enzyme kinetics or from competition with a known ligand. Lower therefore signals higher affinity.
